In publication PMC6271500, “Bowman-Birk Protease Inhibitor from Vigna unguiculata Seeds Enhances the Action of Bradykinin-Related Peptides” (Molecules, 2014):
Blank lines part the entries; values can stand above or below the substance they belong to. Where no end group is shown, it is not given here.

How the values were obtained:
[1] = Dynamic light scattering, free peptides and free BTCI; type: physicochemical; settings: 25 µM, 2 mM Tris-HCl pH 7.4, 37 °C
Experimental: (§1) The hydrodynamic properties of the BTCI through the complex formation with Bk and analogues were monitored using DLS technique with laser source operated at 800 nm on the DynaPro LSR model (Wyatt Technology Corporation, Santa Barbara, CA, USA). The internal temperature was controlled by a Peltier system coupled to the detector. The Bk, Bk-related peptides, BTCI and BTCI-Bk, BTCI-Bk-related peptides complexes, were incubated for 30 minutes in 2 mM Tris-HCl pH 7.4 and then centrifuged at 5000 g and filtered ([…]) before the DLS experiments. The average of 100 acquisitions for each measure was considered for BTCI (25 µM) and synthetic Bk-related peptides (25 µM) separately and subsequently for the BTCI-Bk complexes (1:1). The formation of complexes was analyzed at 37 °C, considering the relationship of the scattered light intensity signal and the hydrodynamic diameter of the samples, using the Dynamics V6 program (Wyatt Technology Corporation).

BTCI [2] = assay: Dynamic light scattering, BTCI-Bk complex formation; type: binding, Vigna unguiculata; settings: BTCI 25 µM : peptide 25 µM (1:1), 30 min, 2 mM Tris-HCl pH 7.4, 37 °C
Experimental: as §1

BTCI [3] = assay: Fluorescence quenching of BTCI by Bk-related peptides; type: binding, Vigna unguiculata; settings: for Binding constant Kb (association) of BTCI in complex with peptide / Stern-Volmer quenching constant KSV of BTCI in complex with peptide: BTCI 25 µM, peptide 25-500 µM; for Stern-Volmer quenching constant KSV of BTCI in complex with peptide: excitation 295 nm, emission at 355 nm
Experimental: Fluorescence measurements were performed at pH 5.0, 7.4 and 9.0 and 25 °C using the Jasco FP-6500 spectrofluorimeter (Jasco Analytical Instruments) coupled to a Jasco ETC-273T Peltier system (Jasco Analytical Instruments) with water circulation. Both excitation and emission slit were fitted to 5.0 nm and the excitation and emission wavelength were 295 nm and 300–400 nm, respectively. The concentration of BTCI was 25 µM, whereas the concentration of Bk and Bk-related peptides varied from 25 to 500 µM. The BTCI in complex with peptides were investigated by fluorescence quenching as a function of pH. The averages of five fluorescence spectra were recorded and processed by the program Spectra Manager (Jasco Analytical Instruments). The fluorescence emissions were fitted according to the classic Stern-Volmer equation (Equation (2)): F0/F = 1 + KSV[Q] (2) where F and F0 are the fluorescence intensities in the presence and absence of quencher, respectively, KSV is Stern-Volmer constant and Q is the concentration of the quencher.
The binding constants for BTCI, Bk and Bk-related peptides interaction were calculated according to Equation (3): Log[(F0 − F)/F] = LogKb + nLog[Q] (3) where Kb is the binding constant and n is the number of binding sites per BTCI [47].

[4] = test system: guinea pig (Cavia porcellus) ileum; assay: Smooth muscle constriction force assay, guinea pig ileum
Experimental: Male guinea pigs (Cavia porcellus) weighing between 200 and 300 g and fasted for 24 h were euthanized using an overdose of anesthetic at 120 mg/kg (ketamine and xylazine). The protocol was approved by the Committee on the Ethics of Animal Experiments of the Institute of Biology, University of Brasilia (Proc. Number 737402/2008). Segments of 2 cm from the terminal portion of the ileum were removed and washed in Tyrode’s solution (g/L: 8.00 NaCl,0.20 KCl, 0.20 CaCl2, 0.21 MgCl2), and attached to a glass rod that was immersed in a physiological bath chamber with a capacity of 10 mL containing Tyrode solution at 37 °C. In the opposite region, a thread of silk was attached to the F-60 isometric transducer connected to a polygraph (NARCO Bio-Systems, Houston, TX, USA). The bath was kept aerated constantly with carbogen (95% O2 + 5% CO2). Previously, as a control, smooth muscle response was analyzed using Bk from Sigma Aldrich. Experiments were done in triplicate, and constriction force was analyzed by addition of Bk and analogues in the absence or presence of BTCI, in three concentrations: 1, 5 or 10 µM. The hypotensive effects of the complexes were also evaluated in the presence of trypsin or chymotrypsin. After each experiment, the bath solution was exchanged three times in order to remove the drug used. Statistical analysis was carried out using the Paleontological Statistics (PAST) Software Package for Education and Data Analysis. A value of Student’s t-test p < 0.05 was considered to denote a significant difference.

[5] = Cardiovascular effects of infusion of Bk and Bk-related peptides with BTCI or vehicle in anesthetized rats; type: in vivo, male Wistar rats; settings: for aortic vasodilation (change in AVC) / change in mean arterial pressure (MAP) / renal vasodilation (change in RVC): from the baseline value, mean ± SEM, 6 experiments
Experimental: All experiments were conducted on adult male Wistar rats (280–350 g). They were obtained from the central animal house of the Federal University of Goiás. Experimental procedures were designed with strict adherence to the National Health Institute Guidelines for Care and Use of Laboratory Animals as approved by the Ethics Committee, Federal University of Goiás (034/12).
On the day of experiments, the rats were anesthetized with halothane (2%–3% in 100% O2; Cristália Ltda, Itapira, SP, Brazil) prior to the catheterization of the right femoral vein and artery. After the catheter placement, the rats were removed from the halothane and the anesthesia was maintained with urethane (1.2 g·kg^−1 b.wt., i.v.; Sigma-Aldrich Co.). The trachea was cannulated to reduce airway resistance. The body temperature was kept at 37 ± 0.5 °C with a thermostatically controlled heated table.
Renal blood flow (RBF) and aortic blood flow (ABF) were measured with an ultrasonic transit-time flowmeter (Transonic Systems, Inc., Ithaca, NY, USA). Data were recorded continuously with an analog-to-digital converter (PowerLab 4/25, ML845, AD Instruments, Bella Vista, Australia). Mean arterial pressure (MAP) was determined from the pulsatile signal. Aortic vascular conductance (AVC) and renal vascular conductance (RVC) were calculated by a ratio of ABF and RBF divided by MAP, and were expressed as percentage of baseline. Increasing doses of BTCI (0.3, 3, 30 and 300 µg·kg^−1, i.v.) were infused.
Results are presented as means ± S.E.M. The effects of infusion of Bk, Bk-related peptides and BTCI on cardiovascular parameters were analyzed by one-way ANOVA. […] A value of Student’s t-test p < 0.05 was considered to denote a significant difference.

trypsin = assay: Pretreatment of peptides with trypsin; type: in vitro ADME
[6] = molecular target: Bk1, [Val]1[Thr]6-bradykinyl-Val-Asp relative to bradykinin: R1V;S6T; C-terminal extension Val10-Asp11; assay: Intrinsic tryptophan (Trp82) fluorescence quenching titration; excitation 295 nm, emission 300-400 nm (analysed at 355 nm); settings: 25 °C, not stated for the fluorescence assays at pH 5.0, 7.4 and 9.0 (2 mM Tris-HCl pH 7.4 is given only for DLS and CD)
[7] = molecular target: Bk2, [Val]1[Thr]6-bradykinyl-Gln-Ser relative to bradykinin: R1V;S6T; C-terminal extension Gln10-Ser11; assay: as above; settings: 25 °C, not stated for the fluorescence assays at pH 5.0, 7.4 and 9.0 (2 mM Tris-HCl pH 7.4 is given only for DLS and CD)
Bradykinin (Bk) = Bradykinin (Bk) (UniProt P01042); assay: as above; settings: 25 °C, not stated for the fluorescence assays at pH 5.0, 7.4 and 9.0 (2 mM Tris-HCl pH 7.4 is given only for DLS and CD)
UniProt P01042, sequence (P01042 whole entry, looked up): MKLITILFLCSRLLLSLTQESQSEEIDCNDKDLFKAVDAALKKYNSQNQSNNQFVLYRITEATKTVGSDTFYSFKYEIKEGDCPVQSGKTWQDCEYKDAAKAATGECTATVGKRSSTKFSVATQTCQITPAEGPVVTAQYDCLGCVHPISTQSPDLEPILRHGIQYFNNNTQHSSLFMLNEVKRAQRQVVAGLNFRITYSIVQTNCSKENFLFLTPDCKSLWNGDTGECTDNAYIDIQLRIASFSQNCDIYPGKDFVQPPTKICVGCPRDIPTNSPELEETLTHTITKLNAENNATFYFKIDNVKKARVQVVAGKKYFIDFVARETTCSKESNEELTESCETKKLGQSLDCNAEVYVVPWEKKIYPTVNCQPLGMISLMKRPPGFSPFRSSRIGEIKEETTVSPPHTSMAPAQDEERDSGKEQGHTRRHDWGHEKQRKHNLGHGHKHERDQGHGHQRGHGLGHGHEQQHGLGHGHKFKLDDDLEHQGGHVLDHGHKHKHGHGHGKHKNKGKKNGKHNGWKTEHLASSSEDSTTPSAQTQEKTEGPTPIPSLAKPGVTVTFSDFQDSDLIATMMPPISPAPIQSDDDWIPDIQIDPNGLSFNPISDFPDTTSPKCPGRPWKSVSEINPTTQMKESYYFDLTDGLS

[8] = peptide 120 µg·kg^−1 + BTCI 3 µg·kg^−1, i.v.
[9] = peptide 120 µg·kg^−1 i.v. + BTCI 3 µg·kg^−1 i.v.
[10] = peptide 120 µg·kg^−1 i.v., without BTCI

Substance: Bradykinin [Bk, reference compound]
polydispersity, peptide [1]: lower than 0.15
hydrodynamic diameter of BTCI in the presence of peptide (BTCI [2]): increased from 1.7 nm to 3.3 nm
binding sites (n) per BTCI molecule (BTCI [3]; pH 5.0, 25 °C): 0.88
Binding constant Kb (association) of BTCI in complex with peptide (BTCI [3]; pH 5.0, 25 °C): 210 M⁻¹
Stern-Volmer quenching constant KSV of BTCI in complex with peptide (BTCI [3]; pH 5.0, 25 °C): 502 M⁻¹
binding sites (n) per BTCI molecule (BTCI [3]; pH 7.4, 25 °C): 1.39
Binding constant Kb (association) of BTCI in complex with peptide (BTCI [3]; pH 7.4, 25 °C): 9680 M⁻¹
Stern-Volmer quenching constant KSV of BTCI in complex with peptide (BTCI [3]; pH 7.4, 25 °C): 553 M⁻¹
binding sites (n) per BTCI molecule (BTCI [3]; pH 9.0, 25 °C): 1.06
Binding constant Kb (association) of BTCI in complex with peptide (BTCI [3]; pH 9.0, 25 °C): 710 M⁻¹
Stern-Volmer quenching constant KSV of BTCI in complex with peptide (BTCI [3]; pH 9.0, 25 °C): 468 M⁻¹
fluorescence intensity of BTCI (Trp^82) on addition of peptide (BTCI [3]; peptide 25 to 500 µM): progressive decrease in fluorescence intensity
effect of BTCI on Bk-induced smooth muscle contraction ([4]; Bk 5.0 µM): slightly increased the smooth muscle contraction
effect of BTCI on Bk-induced smooth muscle contraction ([4]; Bk 10.0 µM): the same effect only when BTCI inhibited trypsin
smooth muscle contraction ([4]; free peptide, 1, 5, 10 µM, 37 °C, triplicate): able to induce smooth muscle contraction in a concentration-responsive manner
smooth muscle contraction in association with BTCI in the presence of serine proteases ([4]; with BTCI and trypsin or chymotrypsin, 1.0, 5.0, 10.0 µM): able to induce smooth muscle contraction in a concentration-responsive manner even in association with BTCI in the presence of serine proteases
effect of association with BTCI on aortic vasodilation [5, 8]: potentiated
effect of association with BTCI on renal vasodilation [5, 8]: potentiated renal
aortic vasodilation (change in AVC) [5, 9]: 16 ± 1.4%
change in mean arterial pressure (MAP) [5, 9]: −10 ± 1.1 mmHg
renal vasodilation (change in RVC) [5, 9]: 12 ± 1.1%
aortic vasodilation (change in AVC) [5, 10]: 9 ± 1.6%
change in mean arterial pressure (MAP) [5, 10]: −7 ± 1.2 mmHg
renal vasodilation (change in RVC) [5, 10]: 9 ± 2%

Substance: VPPGFTPFRVD [Bk1, [Val]^1[Thr]^6-bradykinyl-Val-Asp]
product released by trypsin pretreatment in vitro (trypsin; HPLC and mass spectrometry, data not shown): release the active Bk fragment
cleavage by trypsin (site) (trypsin; pretreatment with trypsin): cleaved on Arg^9-Val^10

Kb ([6]; pH 5.0): 0.84 ×10^3 M^−1
Kb ([6]; pH 7.4): 1.02 ×10^3 M^−1
Kb ([6]; pH 9.0): 0.23 ×10^3 M^−1
Kb ([7]; pH 5.0): 0.59 ×10^3 M^−1
Kb ([7]; pH 7.4): 0.22 ×10^3 M^−1
Kb ([7]; pH 9.0): 1.81 ×10^3 M^−1
Kb (Bradykinin (Bk); pH 5.0): 0.21 ×10^3 M^−1
Kb (Bradykinin (Bk); pH 7.4): 9.68 ×10^3 M^−1
Kb (Bradykinin (Bk); pH 9.0): 0.71 ×10^3 M^−1
Substance: Black-eyed pea trypsin and chymotrypsin inhibitor (BTCI), Bowman-Birk inhibitor
